Here are results for 18 compounds from ChEMBL document CHEMBL4219142, “Discovery of potent DOT1L inhibitors by AlphaLISA based High Throughput Screening assay” (Bioorg Med Chem, 2018).

The subject of experiment [1] is MV4-11. Kind of experiment: Induction of apoptosis in human MV411 cells assessed as necrotic cells at 25 uM after 48 hrs by Annexin-V-FITC/propidium iodide staining based flow cytometric method (Rvb <= 0.08%). The format is functional. In general terms: A flow cytometer gives signals particle by particle.
The subject of experiment [2] is MV4-11. Kind of experiment: Induction of apoptosis in human MV411 cells assessed as late apoptotic cells at 25 uM after 48 hrs by Annexin-V-FITC/propidium iodide staining based flow cytometric method (reference value: 4.38 to 4.63%). The format is functional.
The subject of experiment [3] is MV4-11. Kind of experiment: Induction of apoptosis in human MV411 cells assessed as early apoptotic cells at 25 uM after 48 hrs by Annexin-V-FITC/propidium iodide staining based flow cytometric method (reference value: 1.15 to […]). The format is functional.
Experiment [4] deals with T1, Histone-lysine N-methyltransferase, H3 lysine-79 specific (Homo sapiens, UniProt Q8TEK3). Kind of experiment: Binding affinity to recombinant human His6-SUMO tagged DOT1L (1 to 416 residues) expressed in Escherichia coli BL21(DE3) by surface plasmon resonance method. (Surface plasmon resonance follows binding to a sensor surface in real time, without labels.)
Target sequence in this assay (Q8TEK3 whole entry, the tested form may be a part): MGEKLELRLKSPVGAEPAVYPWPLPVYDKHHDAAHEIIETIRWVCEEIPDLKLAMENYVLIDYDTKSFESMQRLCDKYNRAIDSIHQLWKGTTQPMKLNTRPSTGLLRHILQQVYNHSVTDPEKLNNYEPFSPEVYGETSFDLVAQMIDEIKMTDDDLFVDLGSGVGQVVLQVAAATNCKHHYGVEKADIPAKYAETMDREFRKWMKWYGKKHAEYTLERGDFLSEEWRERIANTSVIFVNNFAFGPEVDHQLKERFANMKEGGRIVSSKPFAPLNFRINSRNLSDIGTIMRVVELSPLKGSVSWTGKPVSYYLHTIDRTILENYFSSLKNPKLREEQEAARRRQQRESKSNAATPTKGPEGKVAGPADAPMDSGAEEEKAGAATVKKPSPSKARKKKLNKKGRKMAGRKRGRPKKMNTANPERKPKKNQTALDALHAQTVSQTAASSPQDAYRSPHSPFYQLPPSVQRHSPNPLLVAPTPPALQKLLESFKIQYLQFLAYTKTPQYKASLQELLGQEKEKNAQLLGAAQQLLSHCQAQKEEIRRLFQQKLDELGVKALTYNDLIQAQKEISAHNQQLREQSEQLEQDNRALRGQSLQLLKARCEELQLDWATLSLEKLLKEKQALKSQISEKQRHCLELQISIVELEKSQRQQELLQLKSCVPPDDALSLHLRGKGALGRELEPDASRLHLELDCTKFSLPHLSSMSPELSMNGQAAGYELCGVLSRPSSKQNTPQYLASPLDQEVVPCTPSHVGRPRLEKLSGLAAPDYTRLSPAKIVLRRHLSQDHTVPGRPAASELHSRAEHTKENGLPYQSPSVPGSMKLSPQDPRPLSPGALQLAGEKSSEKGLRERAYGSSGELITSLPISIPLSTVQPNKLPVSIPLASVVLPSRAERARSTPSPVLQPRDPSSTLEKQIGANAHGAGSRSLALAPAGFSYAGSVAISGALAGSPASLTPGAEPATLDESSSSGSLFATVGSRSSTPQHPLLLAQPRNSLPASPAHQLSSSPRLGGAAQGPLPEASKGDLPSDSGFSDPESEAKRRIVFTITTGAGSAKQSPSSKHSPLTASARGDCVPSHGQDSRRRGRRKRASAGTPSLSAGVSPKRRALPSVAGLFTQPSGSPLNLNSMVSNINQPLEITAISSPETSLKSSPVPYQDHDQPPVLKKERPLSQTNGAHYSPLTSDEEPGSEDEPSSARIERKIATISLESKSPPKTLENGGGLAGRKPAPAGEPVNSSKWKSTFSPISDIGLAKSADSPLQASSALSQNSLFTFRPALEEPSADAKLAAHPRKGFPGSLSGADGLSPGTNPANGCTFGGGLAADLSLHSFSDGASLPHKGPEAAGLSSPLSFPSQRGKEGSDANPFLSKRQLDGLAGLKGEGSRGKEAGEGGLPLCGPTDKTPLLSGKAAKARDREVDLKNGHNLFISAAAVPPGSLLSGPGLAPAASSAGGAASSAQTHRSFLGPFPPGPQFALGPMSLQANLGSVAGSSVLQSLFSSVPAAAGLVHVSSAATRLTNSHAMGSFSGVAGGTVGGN
The test system of experiment [5] is MV4-11. Kind of experiment: Induction of apoptosis in human MV411 cells assessed as viable cells at 12.5 uM after 48 hrs by Annexin-V-FITC/propidium iodide staining based flow cytometric method (reference value: 88.5 to 94.5%). The format is functional. Conditions: MV4-11, 48 h, read-out: Activity.
Experiment [6] relates to MV4-11. Kind of experiment: Cell cycle arrest in human MV411 cells assessed as accumulation at G1 phase at 12.5 uM after 24 hrs by propidium iodide staining based flow cytometric analysis (reference value: 40.62 to 65.56%). Format: functional.
Experiment [7] deals with MV4-11. Kind of experiment: Cell cycle arrest in human MV411 cells assessed as accumulation at G2 phase at 50 uM after 24 hrs by propidium iodide staining based flow cytometric analysis (reference value: 4.19 to 11.88%). Format: functional.
Experiment [8] concerns MV4-11. Kind of experiment: Cell cycle arrest in human MV411 cells assessed as accumulation at S phase at 12.5 uM after 24 hrs by propidium iodide staining based flow cytometric analysis (reference value: 30.25 to 47.5%). Format: functional.
Experiment [9] deals with MV4-11. Kind of experiment: Cell cycle arrest in human MV411 cells assessed as accumulation at S phase at 50 uM after 24 hrs by propidium iodide staining based flow cytometric analysis (reference value: 30.25 to 47.5%). The format is functional.
The subject of experiment [10] is MV4-11. Kind of experiment: Cell cycle arrest in human MV411 cells assessed as accumulation at S phase at 25 uM after 24 hrs by propidium iodide staining based flow cytometric analysis (reference value: 30.25 to 47.5%). The format is functional.
The subject of experiment [11] is MV4-11. Kind of experiment: Antiproliferative activity against human MV411 cells after 72 hrs by Alamar blue assay. The format is functional, cell-based. The conditions noted are these: MV4-11, 72 h.
Experiment [12] deals with MV4-11. Kind of experiment: Cell cycle arrest in human MV411 cells assessed as accumulation at G2 phase at 12.5 uM after 24 hrs by propidium iodide staining based flow cytometric analysis (reference value: 4.19 to 11.88%). The format is functional.
Experiment [13] concerns MV4-11. Kind of experiment: Induction of apoptosis in human MV411 cells assessed as viable cells at 25 uM after 48 hrs by Annexin-V-FITC/propidium iodide staining based flow cytometric method (reference value: 88.5 to 94.5%). The format is functional. Conditions: MV4-11, 48 h, read-out: Activity.
Experiment [14] has as its system MV4-11. Kind of experiment: Cell cycle arrest in human MV411 cells assessed as accumulation at G1 phase after 24 hrs by propidium iodide staining based flow cytometric analysis. The format is functional.
In experiment [15] the test system is MV4-11. Kind of experiment: Cell cycle arrest in human MV411 cells assessed as accumulation at G2 phase at 25 uM after 24 hrs by propidium iodide staining based flow cytometric analysis (reference value: 4.19 to 11.88%). Format: functional.
The target in experiment [16] is T1, Histone-lysine N-methyltransferase, H3 lysine-79 specific. Kind of experiment: Inhibition of recombinant human His6-SUMO tagged DOT1L (1 to 416 residues) expressed in Escherichia coli BL21(DE3) at 25 uM using oligonucleosome as substrate pretreated for 15 mins followed by substrate addition measured after 60 mins in presence of [3H]SAM by liquid scintillation counting method relative to control.
Target sequence in this assay (Q8TEK3 whole entry, looked up, the tested form may be a part): as the sequence (Q8TEK3 whole entry, the tested form may be a part) above

Experiment [17] has the same target. Kind of experiment: Inhibition of recombinant human His6-SUMO tagged DOT1L (1 to 416 residues) expressed in Escherichia coli BL21(DE3) at 100 uM using oligonucleosome as substrate pretreated for 15 mins followed by substrate addition measured after 60 mins in presence of [3H]SAM by liquid scintillation counting method relative to control.
Target sequence in this assay (Q8TEK3 whole entry, looked up, the tested form may be a part): as the sequence (Q8TEK3 whole entry, the tested form may be a part) above
Experiment [18] relates to MV4-11. Kind of experiment: Induction of apoptosis in human MV411 cells assessed as necrotic cells at 12.5 uM after 48 hrs by Annexin-V-FITC/propidium iodide staining based flow cytometric method (Rvb <= 0.08%). Format: functional.
Experiment [19] deals with MV4-11. Kind of experiment: Induction of apoptosis in human MV411 cells assessed as necrotic cells at 50 uM after 48 hrs by Annexin-V-FITC/propidium iodide staining based flow cytometric method (Rvb <= 0.08%). Format: functional.
The test system of experiment [20] is MV4-11. Kind of experiment: Cell cycle arrest in human MV411 cells assessed as accumulation at G1 phase at 25 uM after 24 hrs by propidium iodide staining based flow cytometric analysis (reference value: 40.62 to 65.56%). Format: functional.
Experiment [21] has as its system MV4-11. Kind of experiment: Induction of apoptosis in human MV411 cells assessed as early apoptotic cells at 50 uM after 48 hrs by Annexin-V-FITC/propidium iodide staining based flow cytometric method (reference value: 1.15 to […]). Format: functional.
The target of experiment [22] is T1, Histone-lysine N-methyltransferase, H3 lysine-79 specific. Kind of experiment: Inhibition of recombinant human His6-SUMO tagged DOT1L (1 to 416 residues) expressed in Escherichia coli BL21(DE3) using oligonucleosome as substrate pretreated for 15 mins followed by substrate addition measured after 60 mins in presence of [3H]SAM by liquid scintillation counting method.
Target sequence in this assay (Q8TEK3 whole entry, the tested form may be a part): as above

For experiment [23], the system named is MV4-11. Kind of experiment: Induction of apoptosis in human MV411 cells assessed as late apoptotic cells at 50 uM after 48 hrs by Annexin-V-FITC/propidium iodide staining based flow cytometric method (reference value: 4.38 to 4.63%). The format is functional.
For experiment [24], the system named is MV4-11. Kind of experiment: Induction of apoptosis in human MV411 cells assessed as early apoptotic cells at 12.5 uM after 48 hrs by Annexin-V-FITC/propidium iodide staining based flow cytometric method (reference value: 1.15 to […]). The format is functional.
The test system of experiment [25] is MV4-11. Kind of experiment: Induction of apoptosis in human MV411 cells assessed as viable cells at 50 uM after 48 hrs by Annexin-V-FITC/propidium iodide staining based flow cytometric method (reference value: 88.5 to 94.5%). The format is functional. Conditions: MV4-11, 48 h, read-out: Activity.
The target of experiment [26] is T1, Histone-lysine N-methyltransferase, H3 lysine-79 specific. Kind of experiment: Inhibition of recombinant human His6-SUMO tagged DOT1L (1 to 416 residues) expressed in Escherichia coli BL21(DE3) at 50 uM using oligonucleosome as substrate pretreated for 15 mins followed by substrate addition measured after 60 mins in presence of [3H]SAM by liquid scintillation counting method relative to control.
Target sequence in this assay (Q8TEK3 whole entry, looked up, the tested form may be a part): as the sequence (Q8TEK3 whole entry, the tested form may be a part) above

Experiment [27] relates to MV4-11. Kind of experiment: Cell cycle arrest in human MV411 cells assessed as accumulation at G1 phase at 50 uM after 24 hrs by propidium iodide staining based flow cytometric analysis (reference value: 40.62 to 65.56%). Format: functional.
The subject of experiment [28] is MV4-11. Kind of experiment: Induction of apoptosis in human MV411 cells assessed as late apoptotic cells at 12.5 uM after 48 hrs by Annexin-V-FITC/propidium iodide staining based flow cytometric method (reference value: 4.38 to 4.63%). Format: functional.
Experiment [29] deals with T1, Histone-lysine N-methyltransferase, H3 lysine-79 specific. Kind of experiment: Inhibition of recombinant human His6-SUMO tagged DOT1L (1 to 416 residues) expressed in Escherichia coli BL21(DE3) using oligonucleosome as substrate measured after 30 mins in presence of SAM by AlphaLISA assay. (In general: In Alpha technology, singlet oxygen from a donor bead excites a nearby acceptor bead.)
Target sequence in this assay (Q8TEK3 whole entry, the tested form may be a part): as above

As for `CN(C)c1ccc(-c2nnc3sc(/C=C/c4ccco4)nn23)cc1`, the Activity was found to be 0.04% in experiment [1]; 42.4% in experiment [2]; 35.4% in [3]; 69.4% in experiment [6]; 0% in experiment [7]; 25.96% in experiment [8]. The Activity in experiment [9] is 17.77%; in experiment [10] it was 25.46%; in experiment [12], 4.64%; in experiment [14] it was “Dose-dependent effect”; in experiment [15] it was 3.64%; in experiment [18], 0.05%. The Activity amounted to 0.09% in [19]; 70.9% in [20]; 49.3% in [21]; 49.8% in experiment [23]; 2.01% in experiment [24]; 81.23% in experiment [27]. In addition, the Activity in experiment [28] amounted to 6.29%. Further, in [4], the Kd amounted to 9.3 µM. For the same compound, the viability at 12.5 µM in experiment [5] came to 91.6%. For the same compound, the concentration for half-maximal inhibition (IC50) is 51.5 µM in experiment [11], 20.9 µM in experiment [22] and 20.9 µM in [29]. Further, the viability at 25 µM in experiment [13] worked out at 22.2%. The inhibition in experiment [16] was 56%; in experiment [17], 73%; in [26], 60%. Besides, the viability at 50 µM in [25] is 0.83%.
For the compound `Fc1cccc(-c2nnc3sc(CCc4ccccc4)nn23)c1`, the figures for the inhibition in experiment [17] and in experiment [26] were 50% and 43%, respectively.
For the compound `Fc1cccc(-c2nnc3sc(/C=C/c4ccco4)nn23)c1`, the inhibition is 29% in [17] and 22% in experiment [26].
On to `C(=C\c1nn2c(-c3cc4ccccc4o3)nnc2s1)/c1ccco1`, for which the inhibition in experiment [16] came to 9%; in experiment [17], 88%; in experiment [26], 71%.
In the same order, the values of `COc1ccccc1/C=C/c1nn2c(-c3ccc(N(C)C)cc3)nnc2s1` are 38.5%, 53% and 53%.
`Cc1occc1-c1nnc2sc(Cc3ccccc3)nn12`: the inhibition in experiment [17] was found to be 24%; in experiment [26], 13%.
Consider `C(=C\c1nn2c(-c3ccccc3)nnc2s1)/c1ccco1`, for which the Kd in experiment [4] was 4.78 to 4.87 µM. Also, the IC50 in experiment [11] was 64.7 µM; in [22], 7.01 µM. For the same compound, the values for the inhibition in [16], in experiment [17] and in experiment [26] were 79.4%, 81% and 79%, respectively.
`c1ccc2c(Cc3nn4c(-c5ccoc5)nnc4s3)cccc2c1`: the inhibition amounted to 43% in experiment [16], 77% in experiment [17] and 59% in [26].
On to `Nc1ncnc2c1ncn2[C@@H]1O[C@H](C[C@@H](N)CC[C@H](N)C(=O)O)[C@@H](O)[C@H]1O` [SINEFUNGIN], for which the IC50 in experiment [29] amounted to 33.7 µM.
On to `C(=C\c1nn2c(N3CCOCC3)nnc2s1)/c1ccco1`, for which the inhibition is 45% in [16], 65% in experiment [17] and 55% in [26].
Consider `COc1cc(-c2nnc3sc(/C=C/c4ccco4)nn23)cc(OC)c1OC`, for which the figures for the inhibition in experiment [16], in [17] and in experiment [26] were 48.1%, 60% and 53%, respectively.
As for `C(=C\c1nn2c(C3CCCCC3)nnc2s1)/c1ccco1`, the results for the inhibition in experiment [16], in experiment [17] and in [26] were 40.2%, 72% and 68%, respectively.
`C(=C\c1nn2c(-c3ccncc3)nnc2s1)/c1ccco1`: the Kd in experiment [4] was determined as 7.4 µM. Further, the half-inhibitory concentration (IC50) in [11] is 66.5 µM; in [22], 13.7 µM. In addition, the results for the inhibition in experiment [16], in experiment [17] and in experiment [26] were 54%, 82% and 67%, respectively.
`Fc1ccc(-c2nnc3sc(/C=C/c4ccco4)nn23)cc1`: the values for the inhibition in experiment [17] and in experiment [26] were 40% and 44%, respectively.
In the same order, the values of `Cc1occc1-c1nnc2sc(CCc3ccccc3)nn12` are 27% and 11%.
In the same order, the values of `Cc1occc1-c1nnc2sc(CCCc3ccccc3)nn12` are 41% and 17%.
`COc1cccc(-c2nnc3sc(/C=C/c4ccco4)nn23)c1`: the inhibition was 48.5% in [16], 59% in [17] and 51% in experiment [26].
For `Cc1cccc(-c2nnc3sc(/C=C/c4ccco4)nn23)c1`, the Kd in experiment [4] was determined as 1.21 µM. Also, the IC50 in experiment [11] was 124 µM; in experiment [22] it was 9.41 µM. The results for the inhibition in experiment [16], in experiment [17] and in experiment [26] were 66.6%, 74% and 69%, respectively.

One may read the Kd as a measure of binding affinity in units of concentration. As a reminder, the IC50 is the midpoint of a concentration-inhibition curve. Broadly, the inhibition is the percentage by which the read-out fell short of the control.
